Consider one compound from patent US10696629B2, “Crystalline form of dextral oxiracetam, preparation method therefor and use thereof” (CHONGQING RUNZE PHARMACEUTICAL COMPANY LIMITED, priority 2016, dated 2020).

A short description of data set [1]: variable-temperature powder X-ray diffraction (crystal form stability at high temperatures). It is filed as physicochemical. Particulars: heated from 30° C. to 80° C.; powder X-ray diffraction at 35, 45, 55, 65 and 75° C. As for the experimental part: The crystalline form III of dextral oxiracetam of the invention was placed on a single crystal silicon sample stage, heated from 30° C. to 80° C., and subjected to powder X-ray diffraction measurement at 35° C., 45° C., 55° C., 65° C. and 75° C., respectively. […] It can be seen that the crystalline form III of dextral oxiracetam of the invention has good stability at high temperatures. […] It can be confirmed that the crystalline form III of dextral oxiracetam is temperature stable. When the crystalline form III of dextral oxiracetam of the invention is used for storage or formulation processing, the requirements on processing and storage temperatures are reduced.

Data set [2] in a line: solubility in water. Type of data set: physicochemical.

“Also recorded” adds a separate entry of the source.

As a reminder, the solubility is the concentration that dissolves in the medium under given conditions. A lower solubility goes with a poorly soluble substance.

Regarding `NC(=O)CN1C[C@H](O)CC1=O` [dextral oxiracetam], the “crystal transformation on heating (stability at high temperatures)” value in data set [1] is given as “does not show a phenomenon of crystal transformation; also recorded: does not exhibit crystal transformation phenomenon”. In data set [2], the solubility is at least 100 mg/mL.
